Reference: patent publication US8673854B2, “Prophylactic agent for heart failure” (Calpis Co., Ltd., priority 2007, dated 2014)

Columns and labels:
Type in all cases: in vivo, male Wistar rats
[1] = test system: rat left ventricle wall thickening; assay: Test 1: effect to suppress left ventricle wall thickening in rats administered with L-NAME; details: compared with L-NAME alone; drinking water with L-NAME 1 g/L plus VPP 0.3 g/L or Enalapril 0.5 mg/L, ad libitum for eight weeks; FIG. 1
Method: The tripeptide Val Pro Pro (VPP) was tested for the effect of suppressing the thickening of the left ventricle. The test was carried out using three groups of male Wistar rats of seven weeks old (Japan SLC, Inc.), each of which group consisted of 9 to 12 rats. […] The dose of Enalapril was determined such that its activity to inhibit ACE was equivalent to VPP's.
(§1) The rats were sacrificed by exsanguination under diethylether anesthesia. […] The sliced thin sections were stained with hematoxylin and eosin and the thickness of the left ventricle wall was measured. As for the measurement of the thickness of the ventricle wall, the thickness of a plural of the points per one section, each of which point was considered to have an average thickness, was actually measured with an ocular micrometer under a microscope. The average thickness was defined as the measured value of the section and subjected to statistical analysis. […]

[2] = test system: rat right ventricle wall thickening; assay: Test 2: effect to suppress right ventricle wall thickening in rats administered with L-NAME; details: compared with L-NAME alone; drinking water with L-NAME 1 g/L plus VPP 0.3 g/L or Enalapril 0.5 mg/L, ad libitum for eight weeks; FIG. 2
[3] = test system: rat left ventricle wall thickening; assay: Test 3: effect to suppress left ventricle wall thickening in rats administered with L-NAME; details: compared with L-NAME alone; drinking water with L-NAME 1 g/L plus IPP 0.3 g/L or Enalapril 0.5 mg/L, ad libitum for eight weeks; FIG. 3
Method: (§2) The tripeptide Ile Pro Pro (IPP) was also tested for the suppressive effect against the thickening of the ventricle wall. The test was carried out using three groups of male Wistar rats of seven weeks old (Japan SLC, Inc.), each of which group consist of 9 to 11 rats. After acclimation for a week, the animals received: water with L-NAME (manufactured by Sigma) being dissolved at a concentration of 1 g/L; water with L-NAME and IPP being dissolved at a concentration of 1 g/L and 0.3 g/L respectively; or water with L-NAME and angiotensin converting enzyme (ACE) inhibitor, Enalapril at a concentration of 1 g/L and 0.5 mg/L respectively, ad libitum for eight weeks. The dose of Enalapril was determined such that its activity to inhibit ACE was equivalent to the activity of IPP to inhibit ACE.
as §1, with “for” for “per”

[4] = test system: rat right ventricle wall thickening; assay: Test 4: effect to suppress right ventricle wall thickening in rats administered with L-NAME; details: L-NAME 1 g/L plus IPP 0.3 g/L or Enalapril 0.5 mg/L in water, eight weeks; for Normal (right ventricle wall equal to or smaller than reference value) / Thickening Positive (right ventricle wall thicker than reference value of rats without L-NAME): likelihood-ratio test, IPP group p < 0.01
Method: In order also to check the effect of the tripeptide Ile Pro Pro (IPP) to suppress the thickening of the right ventricle wall, a test was carried out in the same manner as in Test 3, and measurement and evaluation were made.
as §2, with “The” for “The tripeptide Ile Pro Pro (IPP) was also tested for the suppressive effect against the thickening of the ventricle wall. The”, “12” for “11”, “animal” for “animals”
The rats were sacrificed by exsanguination under diethylether anesthesia. The heart was enucleated and then fixed with 10% neutral buffered formalin solution. Annularly-shaped tissue samples were prepared from the fixed heart by horizontally excising the lower part of the atria such that the right ventricle, septum, left ventricle, and coronary artery were included. The specimen were embedded in paraffin and cut into thin sections with a thickness of 3.0 to 3.5 μm using a microtome. Two to five sections per rat were prepared. Slices of the thin sections were stained with hematoxylin and eosin and the thickness of the right ventricle wall was measured. As for the measurement of the thickness of the ventricle wall, the thickness of a plural of the points for one section, each of which point was considered to have an average thickness, was actually measured with an ocular micrometer under a microscope. The average thickness was defined as the measured value of the section and the thickness of the ventricle wall of each individual was determined. The measurement and evaluation of the thickness was carried out by a pathologist who was not informed of the name of each sample.
The evaluation of the thickening of the ventricle wall involved the measurement of the thickness of the ventricle wall of six rats of the same age in weeks, which rats were fed with general tap water with no L-NAME being added. The average of those was defined as a reference value. In cases where the thickness of its ventricle wall was larger than the reference value, a rat was defined as one with the thickening, whereas in cases where the thickness of its ventricle wall was equal to or smaller than the reference value, a rat was considered to be normal. Using the number of the rats with the thickening and the normal rats, comparisons by likelihood-ratio test were made.

[5] = test system: rat heart septal wall thickening; assay: Test 5: effect to suppress heart septal wall thickening in rats administered with L-NAME; details: compared with L-NAME alone; drinking water with L-NAME 1 g/L plus IPP 0.3 g/L or Enalapril 0.5 mg/L, ad libitum for eight weeks; FIG. 4

Row | Compound | thickness of the left ventricle wall [1] | thickness of the right ventricle wall [2] | thickness of the left ventricle wall [3] | suppression of the thickening of the right ventricle wall (result in words) [4] | Normal (right ventricle wall equal to or smaller than reference value) [4] | Thickening Positive (right ventricle wall thicker than reference value of rats without L-NAME) [4] | thickness of the heart septal wall [5]
1 | CCOC(=O)[C@H](CCc1ccccc1)N[C@@H](C)C(=O)N1CCC[C@H]1C(=O)O [Enalapril] | did not exhibit the effect | did not show such an effect | did not exhibit such an effect | did not exhibit such an effect | 8 rats | 1 rat^ rats | did not exhibit the effect
2 | Ile Pro Pro [IPP] |  |  | showed a decrease in the thickness of the left ventricle wall | suppressed the thickening of the right ventricle wall | 9 rats | 0 rats | showed a decrease in the thickness of the heart septal wall
3 | Val Pro Pro [VPP] | showed a decrease in the thickness of the left ventricle wall | showed a decrease in the thickness of the right ventricle wall |  |  |  |  | 
